Results from PubChem BioAssay (NCI).
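All cell lines were grown in 96-well plates and treated with compound for 48 hours. The concentration for 50% growth inhibition is given as GI50. TGI is the concentration that stops growth completely.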

Experiments:
Test in all cases: DTP human tumour cell line panel, 48 h
[1] = tested on: HS 578T breast
[2] = tested on: SK-MEL-5 melanoma
[3] = tested on: 786-0 renal
[4] = tested on: HCC-2998 colon
[5] = tested on: A549 NSCLC
[6] = tested on: MDA-MB-468 breast
[7] = tested on: HOP-62 NSCLC
[8] = tested on: UO-31 renal
[9] = tested on: OVCAR-5 ovarian
[10] = tested on: M14 melanoma
[11] = tested on: HCT-15 colon
[12] = tested on: SN12C renal
[13] = tested on: K-562 leukemia
[14] = tested on: SF-268 CNS
[15] = tested on: NCI/ADR-RES ovarian
[16] = tested on: A498 renal
[17] = tested on: MALME-3M melanoma
[18] = tested on: SK-MEL-28 melanoma
[19] = tested on: MOLT-4 leukemia
[20] = tested on: DU-145 prostate
[21] = tested on: SR leukemia
[22] = tested on: UACC-257 melanoma
[23] = tested on: CAKI-1 renal
[24] = tested on: HCT-116 colon
[25] = tested on: OVCAR-3 ovarian
[26] = tested on: OVCAR-4 ovarian
[27] = tested on: PC-3 prostate
[28] = tested on: HL-60(TB) leukemia
[29] = tested on: NCI-H23 lung
[30] = tested on: OVCAR-8 ovarian
[31] = tested on: NCI-H226 lung
[32] = tested on: BT-549 breast
[33] = tested on: NCI-H522 lung
[34] = tested on: MCF7 breast
[35] = tested on: HOP-92 NSCLC
[36] = tested on: RXF 393 renal
[37] = tested on: T-47D breast
[38] = tested on: HT29 colon
[39] = tested on: SNB-19 CNS
[40] = tested on: COLO 205 colon
[41] = tested on: SW-620 colon
[42] = tested on: SF-295 CNS
[43] = tested on: SF-539 CNS
[44] = tested on: SK-OV-3 ovarian
[45] = tested on: UACC-62 melanoma
[46] = tested on: SNB-75 CNS
[47] = tested on: KM12 colon
[48] = tested on: U251 CNS
[49] = tested on: MDA-MB-435
[50] = tested on: SK-MEL-2 melanoma
[51] = tested on: NCI-H460 lung
[52] = tested on: EKVX NSCLC
[53] = tested on: LOX IMVI melanoma
[54] = tested on: TK-10 renal
[55] = tested on: ACHN renal
[56] = tested on: CCRF-CEM leukemia
[57] = tested on: MDA-MB-231 breast
[58] = tested on: IGROV1 ovarian
[59] = tested on: RPMI-8226 leukemia

Compound: NS(=O)(=O)c1ccc(Nc2nc(N/N=C/c3cc(Br)c(O)c(Br)c3)nc(Nc3ccccc3)n2)cc1
- GI50 [1]: 7.76 µM
- TGI [1]: 81.3 µM
- GI50 [2]: 14.9 µM
- TGI [2]: 28.6 µM
- GI50 [3]: 15.1 µM
- TGI [3]: 44.3 µM
- GI50 [4]: 14.8 µM
- TGI [4]: 29.2 µM
- GI50 [5]: 21.8 µM
- TGI [5]: 67.5 µM
- GI50 [6]: 2.94 µM
- TGI [6]: 15.5 µM
- GI50 [7]: 21.3 µM
- TGI [7]: 58.9 µM
- GI50 [8]: 26.7 µM
- TGI [8]: > 100 µM
- GI50 [9]: 22.7 µM
- TGI [9]: 62.6 µM
- GI50 [10]: 18.8 µM
- TGI [10]: 45.7 µM
- GI50 [11]: 32.3 µM
- TGI [11]: > 100 µM
- GI50 [12]: 15.6 µM
- TGI [12]: 32.1 µM
- GI50 [13]: 23.4 µM
- TGI [13]: > 100 µM
- GI50 [14]: 19.9 µM
- TGI [14]: 58.6 µM
- GI50 [15]: > 100 µM
- TGI [15]: > 100 µM
- GI50 [16]: 13.3 µM
- TGI [16]: 36.6 µM
- GI50 [17]: 14.7 µM
- TGI [17]: 34.8 µM
- GI50 [18]: 18.1 µM
- TGI [18]: 40.6 µM
- GI50 [19]: 19.7 µM
- TGI [19]: 52.3 µM
- GI50 [20]: 16.1 µM
- TGI [20]: 30.2 µM
- GI50 [21]: 15.9 µM
- TGI [21]: > 100 µM
- GI50 [22]: 20.6 µM
- TGI [22]: 47.9 µM
- GI50 [23]: 24 µM
- TGI [23]: 85.7 µM
- GI50 [24]: 17.7 µM
- TGI [24]: 38.9 µM
- GI50 [25]: 21.4 µM
- TGI [25]: 63.1 µM
- GI50 [26]: 23.2 µM
- TGI [26]: 81.4 µM
- GI50 [27]: 19.5 µM
- TGI [27]: 55.2 µM
- GI50 [28]: 22 µM
- TGI [28]: 60.9 µM
- GI50 [29]: 20.9 µM
- TGI [29]: 50.1 µM
- GI50 [30]: 26.9 µM
- TGI [30]: > 100 µM
- GI50 [31]: 26.5 µM
- TGI [31]: 98.2 µM
- GI50 [32]: 16.8 µM
- TGI [32]: 42.7 µM
- GI50 [33]: 16.8 µM
- TGI [33]: 42.4 µM
- GI50 [34]: 16.9 µM
- TGI [34]: 45.4 µM
- GI50 [35]: 26.7 µM
- TGI [35]: 81.2 µM
- GI50 [36]: 14.7 µM
- TGI [36]: 32.8 µM
- GI50 [37]: 7.39 µM
- TGI [37]: 27.3 µM
- GI50 [38]: 19.6 µM
- TGI [38]: 49.1 µM
- GI50 [39]: 14.2 µM
- TGI [39]: 27.7 µM
- GI50 [40]: 16 µM
- TGI [40]: 29.8 µM
- GI50 [41]: 17.2 µM
- TGI [41]: 42.4 µM
- GI50 [42]: 22.2 µM
- TGI [42]: 60.2 µM
- GI50 [43]: 17.9 µM
- TGI [43]: 41.3 µM
- GI50 [44]: 21.3 µM
- TGI [44]: 61.9 µM
- GI50 [45]: 14.5 µM
- TGI [45]: 28.3 µM
- GI50 [46]: 18.6 µM
- TGI [46]: 61.7 µM
- GI50 [47]: 17.5 µM
- TGI [47]: 37.1 µM
- GI50 [48]: 20 µM
- TGI [48]: 71 µM
- GI50 [49]: 17.8 µM
- TGI [49]: 40.6 µM
- GI50 [50]: 15.7 µM
- TGI [50]: 38.1 µM
- GI50 [51]: 19.6 µM
- TGI [51]: 60.1 µM
- GI50 [52]: 21.4 µM
- TGI [52]: 69.2 µM
- GI50 [53]: 15.8 µM
- TGI [53]: 30.4 µM
- GI50 [54]: 27.7 µM
- TGI [54]: 87 µM
- GI50 [55]: 24.8 µM
- TGI [55]: 93.8 µM
- GI50 [56]: 11.1 µM
- TGI [56]: 41.6 µM
- GI50 [57]: 17.2 µM
- TGI [57]: 47.4 µM
- GI50 [58]: 18.5 µM
- TGI [58]: 42.2 µM
- GI50 [59]: 22.8 µM
- TGI [59]: 93.5 µM
